# Values of other authors in US8568704B2, “Dermatological/pharmaceutical compositions comprising benzoyl peroxide, at least one naphthoic acid compound and at least one polyurethane polymer” (Galderma Research & Development, priority 2006, dated 2013).
# Where two headings read alike, the source gives them in different places.
# What was measured:
# [1] = in presence of benzoyl peroxide-based formulation
# [2] = 40° C.
compound,measurement,setting,value
"COc1ccc(-c2ccc3cc(C(=O)O)ccc3c2)cc1C12CC3CC(CC(C3)C1)C2 [adapalene, 6-[3-(1-adamantyl)-4-methoxyphenyl]-2-naphthoic acid]",degradation of adapalene,[1]; for 24 hours,no degradation
O=C(OOC(=O)c1ccccc1)c1ccccc1 [benzoyl peroxide],benzoyl peroxide degradation time,[2]; in ethanol,29 days
same,benzoyl peroxide degradation time,[2]; in propylene glycol,53 days
CC1=C(/C=C/C(C)=C/C=C/C(C)=C/C(=O)O)C(C)(C)CCC1 [tretinoin],tretinoin degraded,[1]; within 2 hours,50%
same,tretinoin degraded,[1]; within 24 hours,95%
